Experimental data published in patent US4478827A, “Renin inhibitors” (The General Hospital Corporation, priority 1983, dated 1984).
pKi: −log10 of the molar value. ≈ marks a conversion by molar mass, not a printed value. Where two headings read alike, the source gives them in different places. Where a SMILES comes first, the peptide text is derived from it. [ ]: non-standard residue; d: D form.

Key:
[1] = Solubility in aqueous medium; assay type: physicochemical
log P = assay type: physicochemical
[2] = Half life in vivo (loss of radioactively labeled peptide from the circulation)
Description: The polypeptides of this invention are characterized by solubility in an aqueous medium at physiologic pH of 100-500 μm, an inhibition constant for (Ki) of between 1-50 μm and a half-life in vivo, as measured by rate of loss of radioactively labeled peptide from the circulation, of between about 1-10 minutes, especially 5-10 minutes.

renin [3] = target: T1, renin (Homo sapiens, UniProt P00797); assay: biochemical
T1 sequence (P00797 67-406): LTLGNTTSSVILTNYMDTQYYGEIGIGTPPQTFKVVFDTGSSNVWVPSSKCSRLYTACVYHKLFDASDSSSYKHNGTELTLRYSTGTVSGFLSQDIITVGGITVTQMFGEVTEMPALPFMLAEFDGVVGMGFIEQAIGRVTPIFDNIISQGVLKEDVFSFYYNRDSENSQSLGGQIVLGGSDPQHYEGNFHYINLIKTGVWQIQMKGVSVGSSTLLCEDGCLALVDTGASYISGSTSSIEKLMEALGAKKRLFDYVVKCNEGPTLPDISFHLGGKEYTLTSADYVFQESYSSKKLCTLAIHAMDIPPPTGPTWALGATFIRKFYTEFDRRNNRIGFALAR
Description: The peptide being tested is dissolved in 0.01 N HCl and the pH adjusted to pH 7.5 to obtain high concentrations of peptide. The peptide solution is diluted further to appropriate concentrations with 0.1 M Tris HCl-albumin.
First, to determine Km, renin (0.006 Goldblatt unit/ml) is incubated for 2 hrs. at 37° with incremental concentrations of tetradecapeptide substrate varying between 3 and 108μ M in a volume of 160 μl at pH 7.5 in 0.1M Tris HCl containing 0.5% albumin. The release of angiotensin I is determined by radioimmunoassay (Haber et al, J. Clin. Endocrinol. Metab. 29, 1349 (1969)). […] Controls for cross-relatively are performed with each experiment and appropriate corrections are made when significant, (Poulsen et al, Scand. J. Clin. Lab. Invest. 31, Suppl. No. 132, 1, (1973)).
The inhibitor constant is calculated at previously described, (Poulsen et al, Scand. J. Clin. Lab. Invest. 31, suppl. No. 132, 1, (1973)), from a weighted leastsquares fit of a Lineweaver-Burk plot. […]
Angiotensin I standards and tetradecapeptide renin substrate were obtained from Peninsula (San Mateo, CA). Angiotensin I concentrations were determined with the radio immunoassay kit purchased from New England Nuclear (Boston, MA). […]
Data from the RIA was worked up using a computer program. Data were first fitted to a Lineweaver-Burke plot and from this KI was calculated.

renin [4] = target: T1, renin; conditions: octapeptides with replaced Leu-Leu cleavage site, prior art; read-out: binding constants; cited from earlier work
[5] = pH 7.4, water, pH 7.40, read-out: Solubility (pH 7.40)

| Compound | solubility [1] [µM] | solubility [1, 5] [µM] | logP (log P) | Half life in vivo [2] [min] | pKi (renin [3]) | life in vitro and in vivo ([2]; in vitro and in vivo) | pKi (renin [4]) |
| --- | --- | --- | --- | --- | --- | --- | --- |
| CC(C)[C@H](NC(=O)[C@H](Cc1ccccc1)NC(=O)[C@H](Cc1ccccc1)NC(=O)[C@H](Cc1c[nH]cn1)NC(=O)[C@H](Cc1ccccc1)NC(=O)[C@@H]1CCCN1C(=O)[C@H](Cc1c[nH]cn1)NC(=O)[C@@H]1CCCN1)C(=O)N[C@@H](Cc1ccc(O)cc1)C(=O)N[C@H](CCCCN)C(=O)O [D-RIP, Pro-His-Pro-Phe-His-Phe-Phe-Val-Tyr-D-Lys] (H-PHPFHFFVY[dK]-OH) | 330 (≈ 435 µg/mL) | 330 (≈ 435 µg/mL) | -1.28 | 5 | 4.53 | – | – |
| CC(C)[C@H](NC(=O)[C@H](Cc1ccccc1)NC(=O)[C@H](Cc1ccccc1)NC(=O)[C@H](Cc1cnc[nH]1)NC(=O)[C@H](Cc1ccccc1)NC(=O)[C@@H]1CCCN1C(=O)[C@H](Cc1cnc[nH]1)NC(=O)[C@@H]1CCCN1)C(=O)N[C@@H](Cc1ccc(O)cc1)C(=O)N[C@@H](CCCCN)C(=O)O [RIP, Pro-His-Pro-Pre-His-Phe-Phe-Val-Tyr-Lys] (H-PHPFHFFVYK-OH) | – | 840 (≈ 1110 µg/mL) | – | 3.8 | 4.38 | relatively short life | – |
| Leu-Phe | – | – | – | – | – | – | 5.40 |
| Leu-Tyr | – | – | – | – | – | – | 4.92 |
